Results: patent publication US20110021471A1, “REDUCING Abeta42 LEVELS AND Abeta AGGREGATION” (priority 2007, published 2011)

Experiments:
APP(C100)-Flag = biological target: T1, APP(C100)-Flag (Homo sapiens, UniProt P05067); assay: Photoaffinity labelling of APP(C100)-Flag and competition; type: binding
T1 construct: APP(C100)-Flag, comprising the 99 C-terminal residues of APP plus a methionine at the N-terminus; added methionine (N)
Experimental: FIG. 1. […] The top panel is for anti-biotin staining; the middle panel is for anti-FLAG staining; and the bottom panel is an overlay of anti-biotin (red and anti-Flag green, LiCor Odyssey imaging). (E) Same samples as in D, but analyzed using an ELISA. Following crosslinking, C100Flag and N100 Flag were captured using anti-FLAG plate, and biotin incorporation was measured using streptavidin-HRP. […] Fen-B (50 μM) was crosslinked to Aβ (10 μM). Biotin labeling was measured following capture with an anti-Aβ1-16 antibody and detection with streptavidin-HRP.
Photoaffinity labelling. All experiments used the following general protocol. Samples (recombinant or synthetic peptides, cell lysates and membrane preparations) were exposed in borosilicate test tubes to ultraviolet light (350 nm) in a Rayonet Photoreactor R100 (RPR-3500 lamps, Southern New England Ultra Violet Company) in a cold room (4° C.) for 30 minutes or as otherwise noted. Crosslinked samples were analyzed by ELISA for biotin incorporation, or analyzed directly by SDS-PAGE (Criterion-XT, Bio-Rad), or after precipitation with streptavidin ultralink plus beads (Pierce). After immunblotting, proteins were detected using chemiluminesence (ECL Plus, GEHealthcare) or near-infrared fluorescence (LiCor Odyssey). Full-length APP and APP CTFs (CTF83, CTF99) were detected with CT20, a rabbit polyclonal antibody against the C-terminus of APP. Biotin was detected with an affinity-purified rabbit polyclonal antibody (Bethyl). Cell-based screens for amyloid-β modulation. Human H4 neuroglioma cells (American Type Culture Collection, ATCC) expressing wild-type APP695 protein or CTF105 fused to secreted alkaline phosphatase which is efficiently processed to APP CTFs (CTF83, CTF99) and produce high levels of amyloid-β, were used for the cell-based screens as previously described. Cells were incubated for 5-6 hours in the presence of the various compounds in Opti-Mem culture medium containing 1% fetal bovine serum. Compounds were dissolved in dimethylsulphoxide (DMSO; 0.5% final concentration) and diluted 200-fold. Media was analyzed for various amyloid-β species (40, 42 and total) using ELISAs as described herein. The EC50 values for changes in amyloid-β species were calculated by fitting sigmoid dose-response curves using nonlinear regression in Prism (GraphPad) and are shown as values±s.e.m. Statistical analysis. Data are presented as either percentage control or mean±s.e.m. Results were analyzed using Prism (Graph Pad) with t-tests or one-way analysis of variance analyses (ANOVAs) with Dunnett's post-hoc correction for comparison of multiple samples to a control. Statistical significance is shown as P,0.05 (one asterisk), P,0.01 (two asterisks) or P,0.001 (three asterisks).
The ability of a purified, recombinant Flag-tagged γ-secretase substrate derived from APP (APP(C100)-Flag, comprising the 99 C-terminal residues of APP plus a methionine at the N-terminus) to be labeled by Fen-B and Flurbi-BpB was tested.

Tg2576 mice = assay: Acute oral dosing of Tg2576 mice, brain soluble Aβ after 4 hours; type: in vivo, mouse
Experimental: FIG. 2. Aβ modulating agents can inhibit Aβ aggregation, and agents that bind Aβ amyloid can modulate Aβ42 production. […] (C) Aβ42 modulating agents inhibit naturally secreted oligomer formation. 7PA2 cells were treated with fenofibrate, FT-1, or FT-9 at 50 μM and oligomers assessed by IP Western blotting. […] (D) FT-9, an Aβ42 reducing agent, can inhibit Aβ42 aggregation in vitro.
FIG. 13. Compounds that bind Aβ are GSMs in vitro and in vivo. (A) A cell-based screen of Aβ-binders identified molecules that increase Aβ42 (DAPH) or decrease Aβ42 (Bis-ANS, X-34 or chrysamine G (CG)). Data are mean±s.e.m., n=3. (B) X-34 is an Aβ42-lowering GSM. Changes in amyloid-β peptide amounts after X-34 treatment are shown. Data are presented as percentage control±s.e.m., n=3. EC50 values were calculated. […] NA, not applicable. (C) X-34 binds to APP(C100)-Flag and decreases labeling by GSM photoprobes. Biotin incorporation into APP by Fen-B and Flurbi-BpB is presented as percentage of control (peptide without X-34)±s.e.m., n=2. (D) X-34 lowers Aβ42 in Tg2576 mice after 4 h. […] Data are presented as amyloid-β percentage of control relative to vehicle±s.e.m. Animals per group (n). Asterisk, P,0.05; two asterisks, P,0.01; ANOVA with Dunnett's post-hoc analysis.
Finally, X-34 was tested for its ability to modulate Aβ42 amounts in an APP transgenic mouse (Tg2576).

H4 APPwt cells = assay: Immunoprecipitation-mass spectrometry of media from H4 APPwt cells; type: cell-based, human
Experimental: FIG. 14. Amyloid binding compounds alter the cleavage of Aβ similar to other established γ-secretase modulators Immunoprecipitation-mass spectrometry studies were conducted on media from H4 APPwt cells grown in the presence of test compounds for 16 hours. Conditions were: control (DMSO, 0.5%), sulindac sulfide (SS; 25 μM), chrysamine g (CG; 25 μM), and X-34 (25 μM). SS was included as a control GSM known to reduce Aβ42 and increase Aβ38. Spectra shown are representative of two experiments with 2-3 replicates each. Identified Aβ peptides based on calculated mass (m/z) are indicated above the peaks.

T1 sequence (P05067 672-770 limits assumed): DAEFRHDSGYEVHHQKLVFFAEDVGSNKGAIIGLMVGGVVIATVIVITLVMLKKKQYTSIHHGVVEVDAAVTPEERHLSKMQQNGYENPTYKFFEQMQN

## O=C(O)c1cc(C=Cc2ccc(C=Cc3ccc(O)c(C(=O)O)c3)cc2)ccc1O [X-34, 1,4-bis(3-carboxy-4-hydroxyphenylethenyl)-benzene]
APP(C100)-Flag
  competition for binding of APP(C100)-Flag by Fen-B and Flurbi-BpB: competed
Tg2576 mice; 100 mg kg21, Tg2576 mice, 4 h
  Aβ40 in the brains: no effects
  decrease of soluble Aβ42 in the brains: 35%
Tg2576 mice; Tg2576, oral gavage, 4 hours
  selectivity of Aβ reduction (Aβ42 vs Aβ40): selective reductions of Aβ42
H4 APPwt cells
  shorter amyloid-β (IP-MS): increased amounts of shorter amyloid-β
H4 APPwt cells; 25 μM, 16 hours
  Aβ33 levels (IP-MS): raise Aβ33 levels more effectively than SS
  levels of Aβ42 (IP-MS): consistently decrease levels of Aβ42
